Experimental data: paper PMC4843002, “Identification of pyrazolopyridazinones as PDEδ inhibitors” (Nature Communications, 2016)

Biological target: PDEδ (Homo sapiens, UniProt O43924)
Assay: competitive fluorescence polarization displacement assay
Format: binding
Method: The Kd values were determined by the fluorescence polarization competition-binding assay, which we developed before.

| Kd [nM] | SMILES |
| --- | --- |
| 136 ± 55 | Cc1nn(CCCC(=O)NCc2ccco2)c(=O)c2nn(-c3ccccc3)c(C)c12 [2b] |
| 42 ± 15 | Cc1nn(CCCC(=O)NCc2ccccc2)c(=O)c2nn(-c3ccccc3)c(C)c12 [2c] |
| 81 ± 21 | COc1ccc(CNC(=O)CCCn2nc(C)c3c(C)n(-c4ccccc4)nc3c2=O)cc1 [2d] |
| 29 ± 7 | Cc1nn(CCCC(=O)NCCc2ccccc2)c(=O)c2nn(-c3ccccc3)c(C)c12 [2f] |
| 5 ± 2 | Cc1c(Cl)cccc1NC(=O)CCCn1nc(C)c2c(C)n(-c3ccccc3)nc2c1=O [2a] |
| 96 ± 14 | Cc1ccc(CNC(=O)CCCn2nc(C)c3c(C)n(-c4ccccc4)nc3c2=O)cc1 [2e] |
| 17 ± 9 | Cc1ccc(-n2nc3c(=O)n(CCCC(=O)NCc4ccccc4)nc(C)c3c2C)cc1 [2h] |
| 5 ± 3 | Cc1ccc(CCNC(=O)CCCn2nc(C)c3c(C)n(-c4ccc(C)cc4)nc3c2=O)cc1 [2j] |
| 50 ± 16 | Cc1ccc(-n2nc3c(=O)n(CCCC(=O)NCc4ccco4)nc(C)c3c2C)cc1 [2g] |
| 6 ± 2 | Cc1ccc(-n2nc3c(=O)n(CCCC(=O)NCCc4ccccc4)nc(C)c3c2C)cc1 [2i] |
